Reference: patent US7776846B2, “Enhancement of activity and/or duration of action of selected anti-inflammatory steroids for topical or other local application” (priority 2003, dated 2010)

What was measured:
[1] = system: forearm of a human volunteer; assay: Human vasoconstriction (blanching) testing, AUC through 18 hours; format: in vivo; details: for effect on the time period during which hydrocortisone displayed activity / effect on the vasoconstrictor activity of hydrocortisone: co-applied with hydrocortisone; for effect on the vasoconstrictor activity of hydrocortisone: molar ratio hydrocortisone:enhancer 1:5 to 1:1, particularly at the lower concentrations
Experimental: The combinations of the present invention have undergone human vasoconstriction, or blanching, testing. Such testing gives a reliable indication of local anti-inflammatory/glucocorticoid activity.
Test compounds at varying mM concentrations as noted below were dissolved in ethanol/propylene glycol (9/1) solution, and 20 μL of the mixtures were applied to filter paper discs, 0.7 cm in diameter. After ethanol evaporation, each disc was attached to waterproof adhesive tape, then applied to the forearm of a human volunteer and left in place for 4 hours. Groups of 6 forearms were tested at each concentration and the intensity of vasoconstriction was judged at 2, 4, 6, 8, 10, 12 and 18 hours after removal of the discs, except where otherwise indicated.
The grading scale for the vasoconstriction activity was as follows: 0, normal skin; 1, slight pallor of indistinct outline; 2, pallor with at least two corners outlined; 3, even pallor with a clear outline of the application sites; 4, very intense pallor. The scores were totaled at each concentration at each time after removal to give a total score at each time interval and an overall total for each concentration. The higher the total score, the greater the blanching or anti-inflammatory effect.
Tested in this manner were hydrocortisone, Δ^1-cortienic acid, the methyl ester of Δ^1-cortienic acid, a combination of hydrocortisone plus Δ^1-cortienic acid, and a combination of hydrocortisone plus the methyl ester of Δ^1-cortienic acid. The structures of the test compounds are shown below:
The data for Δ^1-CA alone and Δ^1-MeCA alone are from a group of 8 volunteers, rather than the 6 used for the other testing.

[2] = system: forearms of human volunteers; assay: Further human vasoconstriction testing, AUC through 24 hours; format: in vivo; details: for AUC (sum of the individual vasoconstriction scores through 24 hours): total of 6 tests; for effect of increasing the ratio of (II) to (Ia/Ib) to about 2:1: HC 25 mM + enhancer 50 mM versus 1:1; for synergism with HC: ratios of HC:enhancer from 5:1 to 1:2
Experimental: The objective of this study was to evaluate the effect of Δ^1-cortienic acid (Δ^1-CA) and the methyl ester of Δ^1-cortienic acid (Δ^1-MeCA) on the vasoconstriction effect of hydrocortisone (HC). The structures for HC, Δ^1-CA and Δ^1-MeCA are given above.
HC (50 mM), Δ^1-CA (0, 10, 25, 50 and 100 mM) and Δ^1-MeCA (0, 10, 25, 50 and 100 mM) were dissolved in a vehicle containing absolute ethanol and propylene glycol (9:1). The resultant HC solutions were mixed (1:1) with vehicle only, or with the Δ^1-CA or Δ^1-MeCA solutions, so that 25 mM of final HC solutions containing various concentrations of Δ^1-CA or Δ^1-MeCA (0 to 50 mM) were obtained. The resultant mixtures (20 μl) were loaded onto circular paper discs (7 mm diameter) that were attached to a water impervious adhesive film (3M). After evaporation of ethanol, the films were applied to the forearms of human volunteers for 4 hours.
Subsequently, the vasoconstriction reaction was judged by the appearance of pallor at various time intervals after the removal of the discs and films (2, 4, 6, 8, 10, 12, 18 and 24 hours after removal). The grading scale was as follows: 0, normal skin; 1, slight pallor; 2, pallor with at least two corners outlined; 3, even pallor with a clear outline of the application sites; 4, very intense pallor. Due to the relatively high variations in response between volunteers, the total score of 6 tests at each time period was taken for the activity evaluation. As before, an overall total for each concentration was obtained. The results were as follows, where AUC was estimated at the sum of the individual scores through 24 hours.

[3] = biological target: T1, receptor ([3H]-triamcinolone acetonide as tracer) (Rattus norvegicus, UniProt P06536); details: medium containing 10^−5M cortienic acid as competitor; cited from earlier work
T1 sequence (P06536 1-795): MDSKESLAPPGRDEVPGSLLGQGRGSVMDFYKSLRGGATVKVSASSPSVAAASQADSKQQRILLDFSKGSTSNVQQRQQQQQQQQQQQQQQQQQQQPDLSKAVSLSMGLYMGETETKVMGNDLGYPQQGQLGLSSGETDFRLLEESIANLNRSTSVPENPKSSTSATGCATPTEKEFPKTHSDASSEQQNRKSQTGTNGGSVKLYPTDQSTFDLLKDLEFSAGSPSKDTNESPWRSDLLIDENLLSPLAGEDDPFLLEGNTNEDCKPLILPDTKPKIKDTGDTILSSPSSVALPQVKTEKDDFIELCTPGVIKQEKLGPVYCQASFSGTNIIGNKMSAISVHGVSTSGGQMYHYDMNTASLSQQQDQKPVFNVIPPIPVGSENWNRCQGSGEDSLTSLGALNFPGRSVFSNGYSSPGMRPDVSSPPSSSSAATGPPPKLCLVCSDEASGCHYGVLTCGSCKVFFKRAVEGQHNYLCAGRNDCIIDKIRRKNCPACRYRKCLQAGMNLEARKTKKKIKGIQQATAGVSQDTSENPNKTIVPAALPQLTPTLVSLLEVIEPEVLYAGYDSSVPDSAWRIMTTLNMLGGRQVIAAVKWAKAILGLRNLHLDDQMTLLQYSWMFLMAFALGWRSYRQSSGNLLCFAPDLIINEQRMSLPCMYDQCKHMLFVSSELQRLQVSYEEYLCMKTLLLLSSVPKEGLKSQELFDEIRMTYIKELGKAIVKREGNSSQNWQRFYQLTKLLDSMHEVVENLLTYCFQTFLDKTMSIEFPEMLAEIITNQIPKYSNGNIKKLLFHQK

[4] = system: forearms of human volunteers; assay: Further human vasoconstriction testing, AUC through 24 hours; format: in vivo; details: enhancing agent alone, 0.5-50 mM
[5] = enhancing agent alone, 0.5 mM, group of 8 volunteers
[6] = enhancing agent alone, 2.5 mM, group of 8 volunteers
[7] = enhancing agent alone, 5 mM, group of 8 volunteers
[8] = enhancing agent alone, 25 mM, group of 8 volunteers
[9] = enhancing agent alone, 50 mM, group of 8 volunteers

Compound | vasoconstriction activity when tested alone [1] | effect on the time period during which hydrocortisone displayed activity [1] | effect on the vasoconstrictor activity of hydrocortisone [1] | AUC (sum of the individual vasoconstriction scores through 18 hours) [1, 5] | AUC (sum of the individual vasoconstriction scores through 18 hours) [1, 6] | AUC (sum of the individual vasoconstriction scores through 18 hours) [1, 7] | AUC (sum of the individual vasoconstriction scores through 18 hours) [1, 8] | AUC (sum of the individual vasoconstriction scores through 18 hours) [1, 9] | effect of increasing the ratio of (II) to (Ia/Ib) to about 2:1 [2] | effect on the vasoconstriction activity of HC ([2]; co-applied with HC 25 mM) | synergism with HC [2] | AUC (sum of the individual vasoconstriction scores) [4] | further results
C[C@]12CCC(=O)C=C1CC[C@@H]1[C@@H]2[C@@H](O)C[C@@]2(C)[C@H]1CC[C@]2(O)C(=O)CO [Hydrocortisone, hydrocortisone, reference compound] | exhibited activity | – | – | – | – | – | – | – | – | – | – | – | time after removal of the disc by which activity was nearly gone ([1]; hydrocortisone alone): ~12 h; AUC (sum of the individual vasoconstriction scores through 18 hours) ([1]; hydrocortisone alone, 1 mM (0.036% by weight), 20 μL on disc, 4 hours, 6 forearms): 0; AUC (sum of the individual vasoconstriction scores through 18 hours) ([1]; hydrocortisone alone, 2 mM (0.073%), 6 forearms): 0; AUC (sum of the individual vasoconstriction scores through 18 hours) ([1]; hydrocortisone alone, 5 mM (0.181%), 6 forearms): 0; AUC (sum of the individual vasoconstriction scores through 18 hours) ([1]; hydrocortisone alone, 10 mM (0.363%), 6 forearms): 3; AUC (sum of the individual vasoconstriction scores through 18 hours) ([1]; hydrocortisone alone, 25 mM (0.906%), 6 forearms): 5; AUC (sum of the individual vasoconstriction scores through 18 hours) ([1]; hydrocortisone alone, 50 mM (1.81%), 6 forearms): 18; AUC (sum of the individual vasoconstriction scores through 24 hours) ([2]; HC 25 mM + Δ^1-CA 0 mM (HC alone, Δ^1-CA series)): 14; AUC (sum of the individual vasoconstriction scores through 24 hours) ([2]; HC 25 mM + Δ^1-MeCA 0 mM (HC alone, Δ^1-MeCA series)): 33
CCOC(=O)O[C@]1(C(=O)OCCl)CC[C@H]2[C@@H]3CCC4=CC(=O)C=C[C@]4(C)[C@H]3[C@@H](O)C[C@@]21C [loteprednol, loteprednol etabonate] | – | – | – | – | – | – | – | – | – | – | – | – | intrinsic activity in receptor binding [3]: intrinsically active
CC12C=CC(=O)C=C1CCC1C2C(O)CC2(C)C1CC[C@]2(O)C(=O)O (stereo partly drawn) [Δ^1-Cortienic Acid, 11β,17α-dihydroxyandrosta-1,4-dien-3-one-17β-carboxylic acid] | neither Δ^1-cortienic acid nor Δ^1-cortienic acid methyl ester had any vasoconstriction activity | able to extend the time period | enhanced the vasoconstrictor activity of hydrocortisone | 0 | 0 | 0 | 0 | 0 | appears to decrease activity | increased the vasoconstriction activity of HC | synergistic results | 0 | –
COC(=O)[C@@]1(O)CCC2C3CCC4=CC(=O)C=CC4(C)C3C(O)CC21C (stereo partly drawn) [Δ^1-Cortienic Acid Methyl Ester, methyl 11β,17α-dihydroxyandrosta-1,4-dien-3-one-17β-carboxylate] | neither Δ^1-cortienic acid nor Δ^1-cortienic acid methyl ester had any vasoconstriction activity | able to extend the time period | enhanced the vasoconstrictor activity of hydrocortisone | 0 | 0 | 0 | 0 | 0 | does not appear to add any significant benefit | increased the vasoconstriction activity of HC | synergistic results | 0 | time after which pallor could still be detected in one arm ([2]; co-applied with HC): ≥ 5 days; increasing activity and duration compared with Δ^1-CA ([2]; co-applied with HC 25 mM): higher increasing activity and longer duration
